Laboratory results published in US20240174723A1, “STAPLED ANTIMICROBIAL PEPTIDES (STAMPS) AND USES THEREOF” (Lytica Therapeutics, Inc., priority 2021, published 2024).
Values after ≈ are worked out from the molar mass of the structure shown. Positions of bridges follow the written chain, without caps; N, C: chain ends. Non-standard residues stand in square brackets, D forms with d. Residues, ends and D or L forms follow the SMILES beside them. S5 = C=CCCC[C@](C)(N)C(=O)O; Dap = NC[C@H](N)C(=O)O

Key:
E. coli = assay type: cell-based, Escherichia coli
In short: (§1)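 Visible-growth endpoint after 20-24 h at 37 °C defines the MIC. Test organisms, pre-grown to log phase, were exposed at 5×10^5 CFU/ml to peptide dilution series in standard or cation-adjusted Mueller-Hinton broth.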

A. baumannii = assay type: cell-based, Acinetobacter baumannii
In short: as §1

P. aeruginosa = assay type: cell-based, Pseudomonas aeruginosa
In short: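 MIC taken as lowest peptide concentration with no visible growth after 20-24 h at 37 °C. Peptide serial dilutions from water stocks met P. aeruginosa inoculum (5×10^5 CFU/ml final) in MHB or MHB II, per a CLSI-adapted microbroth protocol.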

K. pneumoniae = assay type: cell-based, Klebsiella pneumoniae
In short: as §1

S. aureus = assay type: cell-based, Staphylococcus aureus
In short: as §1

in vitro [1] = assay type: cell-based; settings: human
In short: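 LDH release (absorbance at 490 nm) measured in the media of cells treated with serially diluted StAMPs or vehicle at 37 °C: 90 min for renal RPTEC, 48 h for liver HepG2. Cells were seeded overnight beforehand and media refreshed before dosing.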

in vitro [2] = assay type: cell-based; settings: human, Inhibitory Concentration at 50% Cytotoxicity (IC50) Human Liver Cells (HepG2)
In short: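 Cytotoxicity read by CellTiter-Glo luminescence after 48 h at 37 °C exposure to serially diluted StAMPs or vehicle. HepG2 cells were grown in EMEM plus 10% FBS and given 4 h to attach before dosing; peptides came from a 5 mg/mL aqueous stock.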

Structure (SMILES) | Minimum Inhibitory Concentration (MIC) E. coli (E. coli) [µg/mL] | Minimum Inhibitory Concentration (MIC) A. baumannii (A. baumannii) [µg/mL] | Minimum Inhibitory Concentration (MIC) P. aeruginosa (P. aeruginosa) [µg/mL] | Minimum Inhibitory Concentration (MIC) K. pneumoniae (K. pneumoniae) [µg/mL] | Minimum Inhibitory Concentration (MIC) S. aureus (S. aureus) [µg/mL] | IC50 at 90 min (in vitro [1]) [µg/mL] | IC50 at 48 hours (in vitro [2]) [µg/mL]
CC(C)[C@@H]1NC(=O)[C@@](C)(NC(=O)[C@H](C)NC(=O)[C@H](CCCCN)NC(=O)CNC(=O)[C@H](Cc2ccccc2)NC(=O)[C@H](CCCCN)NC(=O)[C@H](CCCCN)NC(=O)[C@H](CCCCN)NC(=O)[C@H](CCCCN)NC(=O)[C@H](CCCCN)NC(=O)[C@]2(C)CCCC=CCCC[C@](C)(NC(=O)CN)C(=O)NCC(=O)N[C@@H](CCCCN)C(=O)N[C@@H](Cc3ccccc3)C(=O)N2)CCCC=CCCC[C@@](C)(C(=O)N[C@@H](C)C(=O)N[C@@H](CCCCN)C(=O)N[C@@H](CCCCN)C(N)=O)NC(=O)[C@H](CCC(=O)O)NC(=O)CNC1=O [compound 4] (H-G[S5]GKF[S5]KKKKKFGKA[S5]VGE[S5]AKK-NH2; staple 2-6, 16-20) | 2 | 3 | 3 | 6 | >64 | 105 (≈ 40.9 µM) | 127 (≈ 49.5 µM)
CC(C)[C@@H]1NC(=O)[C@@](C)(NC(=O)[C@H](C)NC(=O)[C@H](CCCCN)NC(=O)CNC(=O)[C@H](Cc2ccccc2)NC(=O)[C@H](CCCCN)NC(=O)[C@H](CCCCN)NC(=O)[C@H](CCCCN)NC(=O)[C@H](CC(N)=O)NC(=O)[C@H](Cc2c[nH]cn2)NC(=O)[C@]2(C)CCCC=CCCC[C@](C)(NC(=O)CN)C(=O)NCC(=O)N[C@@H](CCCCN)C(=O)N[C@@H](Cc3ccccc3)C(=O)N2)CCCC=CCCC[C@@](C)(C(=O)N[C@@H](C)C(=O)N[C@@H](CCCCN)C(=O)N[C@@H](CCCCN)C(N)=O)NC(=O)[C@H](CCC(=O)O)NC(=O)CNC1=O [compound 6] (H-G[S5]GKF[S5]HNKKKFGKA[S5]VGE[S5]AKK-NH2; staple 2-6, 16-20) | 4 | 4 | 8 | >64 | >64 | > 200 | > 200
CC(C)[C@@H]1NC(=O)[C@@](C)(NC(=O)[C@H](C)NC(=O)[C@H](CCCCN)NC(=O)CNC(=O)[C@H](Cc2ccccc2)NC(=O)[C@H](CCCCN)NC(=O)[C@H](CCCCN)NC(=O)[C@H](CCCCN)NC(=O)[C@H](CO)NC(=O)[C@H](CCCCN)NC(=O)[C@]2(C)CCCC=CCCC[C@](C)(NC(=O)CN)C(=O)NCC(=O)N[C@@H](CCCCN)C(=O)N[C@@H](Cc3ccccc3)C(=O)N2)CCCC=CCCC[C@@](C)(C(=O)N[C@@H](C)C(=O)N[C@@H](CCCCN)C(=O)N[C@@H](CCCCN)C(N)=O)NC(=O)[C@H](CCC(=O)O)NC(=O)CNC1=O [compound 2] (H-G[S5]GKF[S5]KSKKKFGKA[S5]VGE[S5]AKK-NH2; staple 2-6, 16-20) | 2 | 2 | 4 | 4 | 64 | 116 (≈ 46 µM) | 143 (≈ 56.7 µM)
CC(C)[C@@H]1NC(=O)[C@@](C)(NC(=O)[C@H](C)NC(=O)[C@H](CCCCN)NC(=O)CNC(=O)[C@H](Cc2ccccc2)NC(=O)[C@H](CCCCN)NC(=O)[C@H](CCCCN)NC(=O)[C@H](CCCCN)NC(=O)[C@H](CO)NC(=O)[C@H](Cc2c[nH]cn2)NC(=O)[C@]2(C)CCCC=CCCC[C@](C)(NC(=O)CN)C(=O)NCC(=O)N[C@@H](CCCCN)C(=O)N[C@@H](Cc3ccccc3)C(=O)N2)CCCC=CCCC[C@@](C)(C(=O)N[C@@H](C)C(=O)N[C@@H](CCCCN)C(=O)N[C@@H](CCCCN)C(N)=O)NC(=O)[C@H](CCC(N)=O)NC(=O)CNC1=O [compound 17] (H-G[S5]GKF[S5]HSKKKFGKA[S5]VGQ[S5]AKK-NH2; staple 2-6, 16-20) | 3 | 2 | 4 | 32 | >64 | ~180 (≈ 71.1 µM) | > 200
CC(C)[C@@H]1NC(=O)[C@@](C)(NC(=O)[C@H](C)NC(=O)[C@H](CCCCN)NC(=O)CNC(=O)[C@H](Cc2ccccc2)NC(=O)[C@H](CCCCN)NC(=O)[C@H](CCCCN)NC(=O)[C@H](CCCCN)NC(=O)[C@H](CO)NC(=O)[C@H](Cc2c[nH]cn2)NC(=O)[C@]2(C)CCCC=CCCC[C@](C)(NC(=O)CN)C(=O)NCC(=O)N[C@@H](CCCCN)C(=O)N[C@@H](Cc3ccccc3)C(=O)N2)CCCC=CCCC[C@@](C)(C(=O)N[C@@H](C)C(=O)N[C@@H](CCCCN)C(=O)N[C@@H](CCCCN)C(N)=O)NC(=O)[C@H](CCC(=O)O)NC(=O)[C@H](Cc2ccc(O)cc2)NC1=O [compound 13] (H-G[S5]GKF[S5]HSKKKFGKA[S5]VYE[S5]AKK-NH2; staple 2-6, 16-20) | 3 | 2 | 4 | 8 | >64 | > 200 | > 200

Now from value to molecule, other results behind:

Minimum Inhibitory Concentration (MIC) E. coli (E. coli) [µg/mL] | Minimum Inhibitory Concentration (MIC) A. baumannii (A. baumannii) [µg/mL] | Minimum Inhibitory Concentration (MIC) P. aeruginosa (P. aeruginosa) [µg/mL] | Minimum Inhibitory Concentration (MIC) K. pneumoniae (K. pneumoniae) [µg/mL] | Minimum Inhibitory Concentration (MIC) S. aureus (S. aureus) [µg/mL] | IC50 at 90 min (in vitro [1]) [µg/mL] | Structure (SMILES) | IC50 at 48 hours (in vitro [2]) [µg/mL]
4 | 32 | 4 | 16 | >64 | > 800 | CC(C)[C@@H]1NC(=O)[C@@](C)(NC(=O)[C@H](C)NC(=O)[C@H](CN)NC(=O)CNC(=O)[C@H](Cc2ccccc2)NC(=O)[C@H](CN)NC(=O)[C@H](CN)NC(=O)[C@H](CN)NC(=O)[C@H](CN)NC(=O)[C@H](CN)NC(=O)[C@]2(C)CCCC=CCCC[C@](C)(NC(=O)CN)C(=O)NCC(=O)N[C@@H](CN)C(=O)N[C@@H](Cc3ccccc3)C(=O)N2)CCCC=CCCC[C@@](C)(C(=O)N[C@@H](C)C(=O)N[C@@H](CN)C(=O)N[C@@H](CN)C(N)=O)NC(=O)[C@H](CCC(=O)O)NC(=O)CNC1=O [compound 25] (H-G[S5]G[Dap]F[S5][Dap][Dap][Dap][Dap][Dap]FG[Dap]A[S5]VGE[S5]A[Dap][Dap]-NH2; staple 2-6, 16-20) | > 200
4 | 4 | 8 | 16 | >64 | 117 (≈ 45.5 µM) | CC(C)[C@@H]1NC(=O)[C@@](C)(NC(=O)[C@H](C)NC(=O)[C@H](CCCCN)NC(=O)CNC(=O)[C@H](Cc2c[nH]c3ccccc23)NC(=O)[C@H](CCCCN)NC(=O)[C@H](CCCCN)NC(=O)[C@H](CCCCN)NC(=O)[C@H](CO)NC(=O)[C@H](Cc2c[nH]cn2)NC(=O)[C@]2(C)CCCC=CCCC[C@](C)(NC(=O)CN)C(=O)NCC(=O)N[C@@H](CCCCN)C(=O)N[C@@H](Cc3ccccc3)C(=O)N2)CCCC=CCCC[C@@](C)(C(=O)N[C@@H](C)C(=O)N[C@@H](CCCCN)C(=O)N[C@@H](CCCCN)C(N)=O)NC(=O)[C@H](CCC(=O)O)NC(=O)CNC1=O [compound 68] (H-G[S5]GKF[S5]HSKKKWGKA[S5]VGE[S5]AKK-NH2; staple 2-6, 16-20) | 129 (≈ 50.2 µM)
4 | 4 | 4 | 32 | >64 | 366 (≈ 130 µM) | CC(C)[C@@H]1NC(=O)[C@@](C)(NC(=O)[C@H](C)NC(=O)[C@H](CCCCN)NC(=O)CNC(=O)[C@H](Cc2ccccc2)NC(=O)[C@H](CCCCN)NC(=O)[C@H](CCCCN)NC(=O)[C@H](CCCCN)NC(=O)[C@H](CCCCN)NC(=O)[C@H](CCCCN)NC(=O)[C@]2(C)CCCC=CCCC[C@](C)(NC(=O)CN)C(=O)NCC(=O)N[C@@H](CCCCN)C(=O)N[C@@H](Cc3ccccc3)C(=O)N2)CCCC=CCCC[C@@](C)(C(=O)N[C@@H](C)C(=O)N[C@@H](CCCCN)C(=O)N[C@@H](CCCCN)C(=O)NCC(=O)NCC(=O)N[C@@H](CCC(=O)O)C(N)=O)NC(=O)[C@H](CCC(=O)O)NC(=O)CNC1=O [compound 26] (H-G[S5]GKF[S5]KKKKKFGKA[S5]VGE[S5]AKKGGE-NH2; staple 2-6, 16-20) | 354 (≈ 126 µM)
